The AUC(0-t) is exposure summed from dosing to a finite time, without extrapolation to infinity. As usually defined, the Cmax is the highest concentration seen after dosing. Usually MRT stands for a mean duration of stay, worked out from the concentration-time curve.

Where two headings read alike, the source gives them in different places.

Data on four molecules can be found in patent US9422300B2, “Bisulfate of janus kinase (JAK) inhibitor and preparation method therefor” (Jiangsu Hengrui Medicine Co., Ltd., priority 2013, dated 2016).

Data set [1] can be described thus: Pharmacokinetic parameters in rhesus monkeys. The format is in vivo. Particulars: for individual variation of in vivo exposure / AUC(0-t) / Cmax / MRT / t1/2: 50 mg/kg; for AUC(0-t) / Cmax / MRT / t1/2: rhesus monkeys, single dose, plasma. The procedure: The pharmacokinetic parameters of the compound of formula (IV) and its different salt forms were studied in rhesus monkeys, and the properties of the different forms of the compounds were evaluated in detail. Four rhesus monkeys were used as test animals, half male and half female. The rhesus monkeys were administered a single dose of 50 mg/kg. Multi-crossover design was adopted to administer different drugs to test animals, and the convalescence from each cycle was three days. Blood samples (0.5 mL) were taken from the femoral vein before administration (0 h), and at 0.25 h, 0.5 h, 1 h, 2 h, 4 h, 6 h, 8 h and 24 h after administration, stored in heparinized tubes, shaken well, and centrifuged for 10 minutes at 3500 rpm to separate blood plasma. The plasma samples were stored at low temperature, LC-MS/MS was used to measure drug concentration in plasma and liver, and pharmacokinetic parameters were analyzed by WinNonlin 5.3 software.

Data set [2] deals with rheumatoid arthritis patients. The settings on record: phase III clinical trial, cited from earlier work.

Consider `COc1nsc(NC(=O)N2C[C@H]3C[C@H](N(C)c4ncnc5[nH]ccc45)C[C@H]3C2)n1` [Compound of formula (IV), (3aR,5s,6aS)—N-(3-Methoxy-1,2,4-thiadiazol-5-yl)-5-(methyl(7H-pyrrolo[2,3-d]pyrimidin-4-yl)amino)hexahydrocyclopenta[c]pyrrol-2(1H)-carboxamide], for which, in data set [1] (monkeys, 50 mg/kg single dose), the in vivo exposure is 41111 ng/ml*h and the “individual variation of in vivo exposure” value was “relatively large individual variation”. In addition, in data set [1], the “AUC(0-t)” value was 41111 ± 59593 ng·h/mL, the Cmax came out at 6176 ± 8838 ng/mL, the MRT is 8.8 ± 5.16 h and the t1/2 turned out to be 6.3 ± 3.5 h.
Take `COc1nsc(NC(=O)N2C[C@H]3C[C@H](N(C)c4ncnc5[nH]ccc45)C[C@H]3C2)n1` [Bisulfate, (3aR,5s,6aS)—N-(3-methoxyl-1,2,4-thiadiazol-5-yl)-5-(methyl(7H-pyrrolo[2,3-d]pyrimidin-4-yl)amino)hexahydrocyclopenta[c]pyrrole-2(1H)-carboxamide bisulfate]: the AUC(0-t) in data set [1] (both sexes, rhesus monkey, read-out: AUC(0-t)) stood at 63000 ± 53600 ng·h/mL. The Cmax in data set [1] (both sexes, rhesus monkey, read-out: Cmax) worked out at 9940 ± 5320 ng/mL. Moreover, the MRT in data set [1] (both sexes, rhesus monkey, read-out: MRT) stood at 6.3 ± 1.7 h. The “increase of in vivo exposure relative to that of the base” value in data set [1] (monkeys, 50 mg/kg single dose) was found to be 50%. Also, in data set [1] (monkeys, 50 mg/kg single dose, listed as bisulfate salt), the “individual variation of in vivo exposure” value is on record as “relatively small individual variation”. For the same molecule, the t1/2 in data set [1] is 5.3 ± 1.6 h.
Take Citrate: in data set [1], the “AUC(0-t)” value was determined as 44357 ± 45012 ng·h/mL, the Cmax was determined as 5627 ± 4201 ng/mL, the MRT amounted to 10.0 ± 7.6 h and the t1/2 amounted to 6.3 ± 5.5 h.
As for `C[C@@H]1CCN(C(=O)CC#N)C[C@@H]1N(C)c1ncnc2[nH]ccc12` [tofacitinib], in data set [2] (5 mg/10 mg as a single drug), the “efficacy compared with methotrexate” value is on record as “significantly better than methotrexate”. Besides, the “efficacy in reducing the progression of internal structural damage compared with methotrexate” value in data set [2] (period of six months) is reported as “slightly better than methotrexate”.
